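Cultured in 96-well plates, cells were exposed to test compound for 48 hours across five concentrations. At the GI50, growth is halved.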 Activity calls are given as the source filed them. Cut-off read from the data, not from the text of the source: active = GI50 up to about 1.1 µM and inactive = higher.
Tests used:
Assay in all cases: NCI-60 cell line screen, 48 h
[1] = system: 786-0
[2] = system: ACHN
[3] = system: CAKI-1
[4] = system: HCC 2998
[5] = system: HOP-92
[6] = system: IGROV-1
[7] = system: K562
[8] = system: NCI-H226
[9] = system: OVCAR-3
[10] = system: RPMI-8226
[11] = system: SF-268
[12] = system: SK-MEL-2
[13] = system: SK-OV-3
[14] = system: SR
[15] = system: U-251
[16] = system: UACC-62
[17] = system: UO-31
[18] = system: NCI/ADR-RES
[19] = system: PC-3
[20] = system: DU-145

SMILES	GI50 [1]	GI50 [2]	GI50 [3]	GI50 [4]	GI50 [5]	GI50 [6]	GI50 [7]	GI50 [8]	GI50 [9]	GI50 [10]	GI50 [11]	GI50 [12]	GI50 [13]	GI50 [14]	GI50 [15]	GI50 [16]	GI50 [17]	GI50 [18]	GI50 [19]	GI50 [20]
O=C(O)/C=C/c1ccncc1	> 100 µM (inactive)	> 100 µM (inactive)	> 100 µM (inactive)	> 100 µM (inactive)	> 100 µM (inactive)	> 100 µM (inactive)	> 100 µM (inactive)	> 100 µM (inactive)	> 100 µM (inactive)	> 100 µM (inactive)	> 100 µM (inactive)	> 100 µM (inactive)	> 100 µM (inactive)	> 100 µM (inactive)	0.173 µM (active)	> 100 µM (inactive)	> 100 µM (inactive)			
O=C(N[C@@H](c1ccccc1)[C@@H](O)C(=O)OCc1ccc2c(c1)OCO2)c1ccccc1			1 µM (active)	> 100 µM (inactive)	> 86.7 µM (inactive)	> 100 µM (inactive)	> 100 µM (inactive)	> 84.1 µM (inactive)	> 100 µM (inactive)	> 100 µM (inactive)	> 100 µM (inactive)	> 100 µM (inactive)	> 100 µM (inactive)		> 100 µM (inactive)	> 80.7 µM (inactive)	> 91.6 µM (inactive)	> 42.1 µM (inactive)		
CC1C(=O)CC(c2cccs2)N(N=O)C1c1cccs1 (stereo not given)			> 100 µM (inactive)	30.4 µM (inactive)	23.7 µM (inactive)	98.6 µM (inactive)	15.8 µM (inactive)	> 92 µM (inactive)	47 µM (inactive)	23.7 µM (inactive)	97.3 µM (inactive)	49.9 µM (inactive)	29.8 µM (inactive)		68.2 µM (inactive)	59.7 µM (inactive)	43.6 µM (inactive)	26.6 µM (inactive)		
O=c1oc2c(ccc3occc32)c(N2CCCCC2)c1-c1ccccc1				> 100 µM (inactive)	> 73.8 µM (inactive)	> 100 µM (inactive)			> 100 µM (inactive)		> 100 µM (inactive)	> 100 µM (inactive)			> 100 µM (inactive)	> 95.1 µM (inactive)	12.7 µM (inactive)	> 100 µM (inactive)		
O=C1OC(c2ccccc2)=N/C1=C/c1cccs1		> 100 µM (inactive)		> 100 µM (inactive)	> 100 µM (inactive)	> 100 µM (inactive)	30.4 µM (inactive)	58.3 µM (inactive)	26.8 µM (inactive)	16.4 µM (inactive)	> 100 µM (inactive)	49 µM (inactive)	> 100 µM (inactive)	70 µM (inactive)	59.8 µM (inactive)			38.3 µM (inactive)	> 100 µM (inactive)	
CCOC(=O)/C=C/c1c[nH]c(=O)[nH]c1=O			> 75 µM (inactive)	> 75 µM (inactive)	> 75 µM (inactive)	> 75 µM (inactive)	> 75 µM (inactive)	> 75 µM (inactive)	> 75 µM (inactive)	> 39.4 µM (inactive)	> 75 µM (inactive)	> 75 µM (inactive)	> 41.5 µM (inactive)		> 75 µM (inactive)	> 75 µM (inactive)	> 75 µM (inactive)	> 75 µM (inactive)		
CCOC1=CP(=O)(OCC)CC(C)=C1Cl (stereo not given)	> 100 µM (inactive)	> 100 µM (inactive)	> 100 µM (inactive)	> 100 µM (inactive)	> 100 µM (inactive)	> 100 µM (inactive)	> 100 µM (inactive)	> 100 µM (inactive)	> 100 µM (inactive)	> 100 µM (inactive)	> 100 µM (inactive)	> 100 µM (inactive)	> 100 µM (inactive)	> 100 µM (inactive)	> 100 µM (inactive)	> 100 µM (inactive)	> 100 µM (inactive)			
N#Cc1c(-c2ccccc2)cc(-c2ccccc2)n(C2OCC(O)C(O)C2O)c1=S (stereo not given)	25.7 µM (inactive)	18.3 µM (inactive)	32.5 µM (inactive)			17.7 µM (inactive)	39 µM (inactive)	16.9 µM (inactive)	22.3 µM (inactive)	10.4 µM (inactive)	23.4 µM (inactive)	25.4 µM (inactive)	11.7 µM (inactive)		15.3 µM (inactive)	1.66 µM (inactive)	19 µM (inactive)	32.4 µM (inactive)	14.6 µM (inactive)	19.7 µM (inactive)
Cc1ccc(S(=O)(=O)NC(=O)Nc2ccc(C(=O)O)cc2)cc1	> 100 µM (inactive)	> 100 µM (inactive)			> 100 µM (inactive)	> 100 µM (inactive)	> 100 µM (inactive)			> 100 µM (inactive)	> 100 µM (inactive)	> 100 µM (inactive)	> 100 µM (inactive)		> 100 µM (inactive)	> 100 µM (inactive)	> 100 µM (inactive)	> 100 µM (inactive)	> 100 µM (inactive)	> 100 µM (inactive)
O=C1NCC2(CCNCC2)N1	> 100 µM (inactive)	> 100 µM (inactive)		> 100 µM (inactive)	> 100 µM (inactive)	> 100 µM (inactive)		> 100 µM (inactive)		> 100 µM (inactive)	> 100 µM (inactive)		> 100 µM (inactive)	> 100 µM (inactive)	> 100 µM (inactive)	> 100 µM (inactive)	> 100 µM (inactive)	> 100 µM (inactive)		> 100 µM (inactive)
N#C/N=C(/N)NCO	> 43.8 µM (inactive)	> 100 µM (inactive)	> 100 µM (inactive)	> 100 µM (inactive)	> 100 µM (inactive)	> 100 µM (inactive)	> 76 µM (inactive)	> 100 µM (inactive)	> 100 µM (inactive)	> 48.2 µM (inactive)	63.5 µM (inactive)	> 100 µM (inactive)	> 100 µM (inactive)	9.29 µM (inactive)	> 53.7 µM (inactive)	> 100 µM (inactive)	> 100 µM (inactive)			
COc1ccccc1CNCCCCCNCCCCCCCCCCNCCCCCNCc1ccccc1OC	23.9 µM (inactive)	> 100 µM (inactive)		22.4 µM (inactive)	34.5 µM (inactive)	18.8 µM (inactive)	13.6 µM (inactive)	18.1 µM (inactive)	47 µM (inactive)	36.7 µM (inactive)	39.4 µM (inactive)	18.4 µM (inactive)		14.9 µM (inactive)	18.9 µM (inactive)	36.6 µM (inactive)	42 µM (inactive)			18 µM (inactive)
COC(=O)/C=C1/OC(c2ccccc2)=C(Br)C1=O	25 µM (inactive)	46.8 µM (inactive)	24.8 µM (inactive)	56.8 µM (inactive)	64.4 µM (inactive)	> 10 µM (inactive)	21.7 µM (inactive)	68.9 µM (inactive)	> 100 µM (inactive)	31.4 µM (inactive)	49.4 µM (inactive)		> 100 µM (inactive)	20.8 µM (inactive)	23.2 µM (inactive)	20 µM (inactive)	40 µM (inactive)		18.9 µM (inactive)	87.1 µM (inactive)
O=C(CC(=O)n1nc(-c2ccccc2)c(/N=N/c2ccc(Cl)cc2)c1-c1ccccc1)Nc1ccc(Cl)cc1	> 43.3 µM (inactive)	> 100 µM (inactive)	> 100 µM (inactive)	> 100 µM (inactive)	> 91 µM (inactive)	> 100 µM (inactive)	> 41.7 µM (inactive)	> 100 µM (inactive)	> 100 µM (inactive)	> 46.3 µM (inactive)	> 88.7 µM (inactive)	> 100 µM (inactive)	> 100 µM (inactive)	> 100 µM (inactive)	> 100 µM (inactive)	> 100 µM (inactive)	> 100 µM (inactive)			
CCCC/C=C1\CCC(CN2CCOCC2)C1=O (stereo not given)	1.8 µM (inactive)	3.59 µM (inactive)	1.92 µM (inactive)	9.08 µM (inactive)	1.83 µM (inactive)	14.3 µM (inactive)	1.19 µM (inactive)	8.63 µM (inactive)	5.32 µM (inactive)	0.15 µM (active)	11.5 µM (inactive)	10.1 µM (inactive)	17.1 µM (inactive)	1.73 µM (inactive)	3.53 µM (inactive)	6.4 µM (inactive)	4.22 µM (inactive)		13.2 µM (inactive)	16.9 µM (inactive)
CN1C(=O)C(O)C[C@@H]1c1ccc(F)cc1 (stereo not given in full)	> 100 µM (inactive)	> 100 µM (inactive)	> 100 µM (inactive)	> 100 µM (inactive)	> 100 µM (inactive)	> 100 µM (inactive)		> 100 µM (inactive)	> 100 µM (inactive)	> 100 µM (inactive)		> 100 µM (inactive)	> 100 µM (inactive)	> 100 µM (inactive)	> 100 µM (inactive)	> 100 µM (inactive)	> 100 µM (inactive)		> 100 µM (inactive)	> 100 µM (inactive)
CCCCCCc1cn([C@H]2C[C@H](O)[C@@H](CO)O2)c(=O)[nH]c1=O			> 100 µM (inactive)	> 100 µM (inactive)	> 100 µM (inactive)	> 100 µM (inactive)	> 100 µM (inactive)	> 100 µM (inactive)	> 100 µM (inactive)	> 100 µM (inactive)	> 100 µM (inactive)	> 100 µM (inactive)	> 10 µM (inactive)		> 100 µM (inactive)	> 31.6 µM (inactive)	> 100 µM (inactive)	> 100 µM (inactive)		

From ChEMBL document CHEMBL1201862, “PubChem BioAssay data set” (2004)
